Results: article PMC3458020, “High-Throughput Screening for Novel Inhibitors of Neisseria gonorrhoeae Penicillin-Binding Protein 2” (PLoS ONE, 2012)
Where two headings read alike, the source gives them in different places.

What was measured:
[1] = system: N. gonorrhoeae FA19; assay: MIC on GCB agar plates, strain FA19; type: cell-based; settings: Neisseria gonorrhoeae
Method: (§1) Three strains of N. gonorrhoeae were used in susceptibility tests: 1) FA19, a penicillin-and cephalosporin-susceptible strain; 2) FA6140, a penicillin-resistant but cephalosporin-susceptible strain; and 3) 35/02, a penicillin-resistant and cephalosporin intermediate-resistant strain. The disc diffusion zone method was applied for preliminary testing of “hits” identified in the screening process. For this method, 100 µl of a cell suspension (∼1×10^7 bacteria) was added to 3 ml of GCB top agar (GC Broth containing 0.75% agar) at 50 °C, which was then added to GCB plates and allowed to solidify. Five µl of each compound (5 µg) was added separately to antibiotic susceptibility discs (BBL™, BD, Franklin Lakes, NJ), the discs were placed on top of plates, and the plates were incubated overnight in a 4% CO2 incubator at 37 °C. Those compounds that produced a visible zone of inhibition were then tested for their MICs on agar plates as described. Briefly, GCB agar plates containing increasing amounts of the tested compounds were spotted with 5×10^4 cells. The lowest concentration of the test compound that prevented growth of <5 colonies was defined as the MIC. These experiments were repeated three times, with each experiment producing similar results.

[2] = biological target: T1, N. gonorrhoeae PBP 2 (Neisseria gonorrhoeae, UniProt P08149); assay: FP high-throughput screening assay (Bocillin-FL binding to PBP 2); design: Inhibition (%) of Bocillin-FL binding to PBP 2: concentration or dose not given beside the values; settings: four replicates; for Compound (mP) (mean ± SD): FP signal of individual compound with PBP 2 and Bocillin-FL; for Inhibition (%) of Bocillin-FL binding to PBP 2: individual compounds
T1 construct: A soluble construct of wild-type PBP 2; made in house
T1 sequence (P08149 44-581 limits assumed): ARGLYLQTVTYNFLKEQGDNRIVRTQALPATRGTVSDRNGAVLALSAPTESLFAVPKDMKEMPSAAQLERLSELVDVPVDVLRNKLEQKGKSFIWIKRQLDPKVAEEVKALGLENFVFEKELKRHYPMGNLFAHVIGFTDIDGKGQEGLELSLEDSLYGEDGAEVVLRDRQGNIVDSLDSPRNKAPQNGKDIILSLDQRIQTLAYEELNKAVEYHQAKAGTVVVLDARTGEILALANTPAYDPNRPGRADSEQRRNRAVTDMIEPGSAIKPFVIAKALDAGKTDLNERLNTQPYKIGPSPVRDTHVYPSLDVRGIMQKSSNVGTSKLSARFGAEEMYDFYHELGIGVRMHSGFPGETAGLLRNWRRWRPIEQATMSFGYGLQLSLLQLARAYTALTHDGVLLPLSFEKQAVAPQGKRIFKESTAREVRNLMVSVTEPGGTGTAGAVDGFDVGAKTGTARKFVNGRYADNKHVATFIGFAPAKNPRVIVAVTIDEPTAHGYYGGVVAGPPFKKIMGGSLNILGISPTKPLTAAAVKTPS
Method: (§2) A soluble construct of wild-type PBP 2 from the penicillin-susceptible strain of N. gonorrhoeae FA19 was expressed and purified as described previously. Bocillin FL™ was obtained from Invitrogen Inc. (Carlsbad, CA). Penicillin G and γ-Globulins from bovine blood (BGG) were purchased from Sigma (St. Louis, MO). Prior to use, all reagents were diluted in an assay buffer comprising 50 mM potassium phosphate, pH 8, and 0.1 mg/ml BGG. The DIVERSet library of 50,080 small lead compounds from ChemBridge Corporation (San Diego, CA) was provided by the MUSC Drug Discovery Core (DDC). Three laboratory strains of N. gonorrhoeae–FA19 [28], penicillin-resistant FA6140 [29], and cephalosporin-intermediate resistant Ceph^I strain 35/02 [30]–were from the laboratory collection of R. Nicholas (UNC-Chapel Hill).
(§3) Measurements of fluorescence and FP were performed on a Spectramax M5 microplate reader (Molecular Devices, Sunnyvale, CA) with excitation and emission wavelengths of 485 nm and 520 nm, respectively, using a 515 nm filter to block residual excitation light and to minimize background interference. Black, shallow 384-well micro plates (ProxiPlate ™ –384 F Plus, PerkinElmer) were used to record data. To minimize the polarization effects from any fluorophore bound to the surface of the well, both excitation and emission data were recorded from the top of the well. Reading time was 100 ms per well. Fluorescence polarization was quantified in millipolarization units (mP) according to the equation, mP = 1000×[(Iv − G.Ih)/(Iv + G.Ih)], where Iv and Ih are parallel and perpendicular emission intensity measurements, respectively, corrected for background (buffer), and G is the instrument-dependent correction coefficient, defined as a ratio of sensitivities of the detection system for vertically and horizontally polarized light. Using the equation G = Iv/Ih and SoftMax® Pro Data Acquisition & Analysis Software (Molecular Devices, Sunnyvale, CA), the G-factor was determined with dilution series of Bocillin-FL-only (free tracer). The assay window (ΔmP) was defined as the difference between protein-tracer sample and free-tracer, i.e. ΔmP = mPs – mPfree, and is a measure of the maximum specific binding.
HTS screening against the ChemBridge DIVERSet library was carried out under the following conditions: 1 µl of each compound (10% DMSO final) in duplicate was pre-incubated with 9 µl of PBP 2 for 1 h at room temperature, followed by additional 30 min incubation with 2 µl Bocillin-FL (0.87 µM PBP2∶ 1 µM Bocillin-FL final). In addition to samples with the compounds, each plate also contained 2 background wells (12 µl buffer only), and at least 4 wells each for Pc, Nc, and Dc reactions. All samples used for background measurements or controls included 10% DMSO. Initial screening was carried out with 10 mM cocktails of 10 compounds (giving a final concentration of 100 µM for each compound). […] The auto fluorescence of each compound was also tested individually.

[3] = biological target: T1, N. gonorrhoeae PBP 2; assay: FP-based concentration-response competition assay with Bocillin-FL; type: binding; settings: 1 µM PBP 2, 1 µM Bocillin-FL
Method: as §2, §3
To evaluate the performance of the assay, steady-state concentration-response experiments were carried out using penicillin G in a competition assay with Bocillin-FL. Penicillin G (0.05–1000 µM) was mixed with 1 µM PBP 2 and 1 µM Bocillin-FL, followed by a 1 hr incubation. The positive (Pc) and negative (Nc) controls were defined as the FP of the Bocillin-FL - protein and of the free tracer, respectively, in the absence of penicillin G. The FP of the Bocillin-FL - protein at 100 µM penicillin G was defined as a displaced tracer control (Dc). Since DMSO was used as a solvent in the compound library, the effect of 10% DMSO on the FP-binding assay was also determined. Data points were normalized to the maximum specific binding, which defines complete saturation of PBP 2 by Bocillin-FL in the absence of penicillin G, and IC50 values were determined using non-linear regression analysis using GraphPad Prism version 4.00 for Windows (GraphPad Software, Inc, San Diego, CA).
For the FP experiments, 0.01–200 µM of each potential hit was incubated with PBP 2 (1 µM) for 1 h, followed by an additional 30 min incubation with 1 µM Bocillin-FL to detect the residual activity of the labeled penicillin binding. For the SDS-PAGE-based concentration-response experiments, PBP 2 (1 µM) in 50 mM sodium phosphate, 0.01% Triton X-100, pH 8 was incubated with 0.05–1000 µM of a compound for 1 h, followed by additional 15 min incubation with 10 µM Bocillin-FL. The reaction was stopped by mixing each sample with 5 X SDS-loading buffer, followed by boiling for 2 min. The samples were submitted to electrophoresis on 10% Mini-Protean TGX™ SDS-PAGE gels (Bio-Rad, Hercules, CA) to separate bound PBP 2 from free ligand. […]

[4] = system: N. gonorrhoeae FA6140; assay: MIC on GCB agar plates, strain FA6140; type: cell-based; settings: Neisseria gonorrhoeae
Method: as §1

[5] = system: N. gonorrhoeae 35/02; assay: MIC on GCB agar plates, strain 35/02; type: cell-based; settings: Neisseria gonorrhoeae
Method: as §1

[6] = biological target: T1, N. gonorrhoeae PBP 2; assay: SDS-PAGE-based concentration-response assay with Bocillin-FL (0.01% Triton X-100); type: binding
Method: as §2
For the FP experiments, 0.01–200 µM of each potential hit was incubated with PBP 2 (1 µM) for 1 h, followed by an additional 30 min incubation with 1 µM Bocillin-FL to detect the residual activity of the labeled penicillin binding. For the SDS-PAGE-based concentration-response experiments, PBP 2 (1 µM) in 50 mM sodium phosphate, 0.01% Triton X-100, pH 8 was incubated with 0.05–1000 µM of a compound for 1 h, followed by additional 15 min incubation with 10 µM Bocillin-FL. The reaction was stopped by mixing each sample with 5 X SDS-loading buffer, followed by boiling for 2 min. The samples were submitted to electrophoresis on 10% Mini-Protean TGX™ SDS-PAGE gels (Bio-Rad, Hercules, CA) to separate bound PBP 2 from free ligand. At least two independent reactions were performed in duplicate at each concentration of an inhibitor. Gels were visualized by UV using a Kodak EDAS 290 imaging system (Scientific Imaging Systems Eastman Kodak, New Haven, CT, USA) and the protein bands were stained with Coomassie to verify equal loading. Densitometry was performed with ImageJ 1.37v program (National Institutes of Health, USA, http://rsb.info.nih.gov/ij/). In both methods, data points were normalized to the maximum value of the fluorescence intensity, which defines complete saturation of PBP 2 by Bocillin-FL in the absence of compound, and IC50 values of the inhibitors were defined as the concentration of a compound at 50% of the residual activity of Bocillin-FL and calculated using GraphPad Prism (see above).

[7] = biological target: T2, PBP 2 (Neisseria gonorrhoeae, UniProt P08149); assay: Mass spectrometry test for covalent interaction with PBP 2; settings: data not shown
T2 construct: A soluble construct of wild-type PBP 2; made in house
T2 sequence (P08149 44-581 limits assumed): as above

[8] = penicillin- and cephalosporin-susceptible strain FA19, read-out: MIC FA19
[9] = IC50 measured by FP, 0.01–200 µM compound, four replicates
[10] = penicillin-resistant, cephalosporin-susceptible strain FA6140, read-out: MIC FA6140
[11] = penicillin-resistant, cephalosporin intermediate-resistant strain 35/02, read-out: MIC 35/02
[12] = IC50, SDS-PAGE assay, 1 µM PBP 2, 10 µM Bocillin-FL, 0.01% Triton X-100
[13] = IC50 measured by SDS-PAGE, 0.01% Triton X-100, 1 µM PBP 2, 10 µM Bocillin-FL, two independent experiments

| Compound | MIC [1, 8] [µg/mL] | Compound (mP) (mean ± SD) [2] | Inhibition (%) of Bocillin-FL binding to PBP 2 [2] [%] | IC50 [3, 9] [µM] | MIC [4, 10] [µg/mL] | MIC [5, 11] [µg/mL] | IC50 [6, 12] [µM] | IC50 [6, 13] [µM] | MIC ([1]; FA19, read-out: MIC FA19) [µg/mL] | MIC ([4]; FA6140, read-out: MIC FA6140) [µg/mL] | MIC ([5]; 35/02, read-out: MIC 35/02) [µg/mL] | MIC ([1]; strain FA19, MIC given in µM, read-out: MIC FA19) [µM] | Covalent interaction with PBP 2 (mass of the protein) [7] | MIC ([4]; strain FA6140, MIC given in µM, read-out: MIC FA6140) [µM] | MIC ([5]; strain 35/02, MIC given in µM, read-out: MIC 35/02) [µM] | IC50 ([6]; IC50, SDS-PAGE assay, same IC50 given in µg/ml) [µM] | IC50 ([3]; IC50 of penicillin G for PBP 2 (FP-based competition assay), with 10% DMSO) [µM] | IC50 ([3]; IC50 of penicillin G for PBP 2 (FP-based competition assay), without DMSO) [µM] |
| --- | --- | --- | --- | --- | --- | --- | --- | --- | --- | --- | --- | --- | --- | --- | --- | --- | --- | --- |
| CCc1ccc(O)c(/N=C/c2cc(I)cc(I)c2O)c1 [Compound 1] | 4 | 31.4±0.1 | 108.2 | 114 | 16 | 16 | 221 | 221 |  |  |  |  |  |  |  |  |  |  |
| O=Cc1cc(Cc2ccccc2)cc([N+](=O)[O-])c1O [Compound 2] | 4 | 60.4±20.3 | 85.8 | 330 | 16 | 8 | 128 | 128 |  |  |  |  |  |  |  |  |  |  |
| Sc1nnc(-c2ccc(Cl)cc2Cl)n1/N=C/C=C/c1ccco1 [Compound 3] | 16 | 65.7±12.4 | 81.8 | 129 | 32 | 32 | 898 |  |  |  |  |  |  |  |  |  |  |  |
| O=S(=O)(Nc1ccc(O)c2ccccc12)c1cccc2ccccc12 [Compound 4] | 16 | 35.6±2.1 | 105.4 | 51.4 | 16 | 16 | 50 | 50.2 |  |  |  |  |  |  |  |  |  |  |
| CCc1ccc(S(=O)(=O)Nc2ccc(O)c3ccccc23)cc1 [Compound 5] | 8 | 43.3±0.8 | 97.6 | 52.1 | 16 | 16 | 56 | 56.3 |  |  |  |  |  |  |  |  |  |  |
| O=c1sc2ccccc2c(O)c1C(c1ccccc1)c1c(O)c2ccccc2sc1=O [Compound 6] |  | 54.6±3.2 | 89.5 | 50.9 |  |  | 49 | 49.3 | 4 | 8 | 8 |  |  |  |  |  |  |  |
| CN1C(=O)/C(=C2\SC(=S)NC2=O)c2cc(Br)ccc21 [Compound 7] | 2 | 45.2±20.2 | 96.6 | 11.3 | 8 | 8 | 153 | 153 |  |  |  | 5.6 | no increase in mass of the protein was observed | 23.4 | 23.4 | 152 |  |  |
| CC1(C)S[C@@H]2[C@H](NC(=O)Cc3ccccc3)C(=O)N2[C@H]1C(=O)O [Penicillin G, reference compound] |  |  |  |  |  |  |  |  |  |  |  |  |  |  |  |  | 1 | 1.4 |
